We go through one compound from ChEMBL document CHEMBL5537151, “Design, synthesis and bioactivity evaluation of novel fusion peptides and their CPT conjugates inducing effective anti-tumor responses on HER2 positive tumors” (Eur J Med Chem, 2024).

In general, IC50 refers to the concentration needed to halve the response being measured. A high value points to weaker potency in that assay.

For data set [1], the system named is SK-BR-3. Briefly: Induction of apoptosis in human SK-BR-3 cells assessed as downregulation of XIAP protein expression at 2.5 to 5 uM incubated for 24 hrs by Western blot analysis. The conditions noted are these: dose 2.5-5 µM. The data set is classed as functional, cell-based. In general terms: In western blotting, separated proteins are transferred to a membrane and probed.

A short description of data set [2]: Drug localization in lysosome of human SK-BR-3 cells assessed as increase in green fluorescence of FITC at 10 uM incubated for 6 hrs by FITC/Lysotracker red dye based laser confocal microscopic analysis. The data set is classed as ADME, subcellular. To be noted: sk-br-3, 6 h.
Data set [3] concerns the target T1, DNA topoisomerase 1 (Homo sapiens) (UniProt P11387).
T1 sequence (whole entry): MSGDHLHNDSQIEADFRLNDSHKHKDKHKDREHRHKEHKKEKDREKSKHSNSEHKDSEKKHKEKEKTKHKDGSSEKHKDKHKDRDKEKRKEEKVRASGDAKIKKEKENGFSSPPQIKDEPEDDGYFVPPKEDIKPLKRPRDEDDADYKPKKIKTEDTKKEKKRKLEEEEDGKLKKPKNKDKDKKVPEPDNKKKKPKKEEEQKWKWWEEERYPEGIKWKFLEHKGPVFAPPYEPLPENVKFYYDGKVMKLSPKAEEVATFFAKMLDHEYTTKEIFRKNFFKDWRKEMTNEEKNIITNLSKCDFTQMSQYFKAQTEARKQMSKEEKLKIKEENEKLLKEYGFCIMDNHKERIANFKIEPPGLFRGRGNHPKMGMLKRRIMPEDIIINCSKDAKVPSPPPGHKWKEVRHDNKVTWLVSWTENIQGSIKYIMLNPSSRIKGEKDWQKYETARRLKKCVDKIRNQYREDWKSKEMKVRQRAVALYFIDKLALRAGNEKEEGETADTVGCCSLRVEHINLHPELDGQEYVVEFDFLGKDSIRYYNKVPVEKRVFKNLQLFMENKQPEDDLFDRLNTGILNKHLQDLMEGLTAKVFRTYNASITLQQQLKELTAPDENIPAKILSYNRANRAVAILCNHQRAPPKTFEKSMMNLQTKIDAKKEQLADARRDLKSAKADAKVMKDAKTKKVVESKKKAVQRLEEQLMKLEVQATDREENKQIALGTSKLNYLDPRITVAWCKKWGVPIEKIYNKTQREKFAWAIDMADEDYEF
As to the kind of experiment: Inhibition of topoisomerase 1 (unknown origin) assessed as reduction in DNA relaxation by measuring increase in supercoiled DNA level pretreated for 20 mins in water bath followed by pBR322 DNA addition and measured after 30 mins by agarose gel electrophoresis. To be noted: dose 1-100 µM, time 50.0 min.

The nature of data set [4]: Toxicity in nude mouse xenografted with human SK-BR-3 cells assessed as increase in ALT level at 8 umol/kg, iv administered every 3 days for 14 days. The data set is classed as organism-based. To be noted: in vivo, 336 h, dose 8 µmol/kg, time 14 day. For orientation: In xenograft studies the graft and the host belong to different species.
Data set [5] is described as follows: Toxicity in nude mouse xenografted with human SK-BR-3 cells assessed as increase in AST level at 8 umol/kg, iv administered every 3 days for 14 days. To be noted: in vivo, 336 h, dose 8 µmol/kg, time 14 day. The data set is classed as organism-based.
Data set [6] can be described thus: Toxicity in nude mouse xenografted with human SK-BR-3 cells assessed as cell necrosis in liver at 8 umol/kg, iv administered every 3 days for 14 days by H and E staining based analysis. The data set is classed as organism-based. To be noted: in vivo, 336 h, dose 8 µmol/kg, time 14 day.
Data set [7] can be described thus: Toxicity in nude mouse xenografted with human SK-BR-3 cells assessed as inflammatory cell infiltration in heart at 8 umol/kg, iv administered every 3 days for 14 days by H and E staining based analysis. The data set is classed as organism-based. To be noted: in vivo, 336 h, dose 8 µmol/kg, time 14 day.
The nature of data set [8]: Toxicity in nude mouse xenografted with human SK-BR-3 cells assessed as inflammatory cell infiltration in kidney at 8 umol/kg, iv administered every 3 days for 14 days by H and E staining based analysis. The data set is classed as organism-based. The conditions noted are these: in vivo, 336 h, dose 8 µmol/kg, time 14 day.
The test system of data set [9] is SK-BR-3. As to the kind of experiment: cells. To be noted: Homo sapiens, SK-BR-3, 48 h.
Description: Cytotoxicity against HER-positive human SK-BR-3 cells incubated for 48 hrs by CCK-8 assay
The test system of a further data set is NCI-N87. Briefly: cells. To be noted: Homo sapiens, NCI-N87, 48 h.

The source made the active and inactive calls. The calls are words filed in the database; no cut-off is given here. Peptide text beside a SMILES is read from it. * marks the point of attachment. X1 = CCC1(C(=O)OCCS*)C(=O)OCc2c1cc1n(c2=O)Cc2cc3ccccc3nc2-1

Description for NCI-N87: Cytotoxicity against HER-positive human NCI-N87 cells incubated for 48 hrs by CCK-8 assay

Regarding `CC[C@H](C)[C@H](NC(=O)[C@@H]1CCCN1C(=O)[C@@H](NC(=O)[C@H](C)N)C(C)C)C(=O)N[C@@H](C)C(=O)N[C@@H](CCC(N)=O)C(=O)N[C@@H](CCCCN)C(=O)N[C@@H](CSSCCOC(=O)C1(CC)C(=O)OCc2c1cc1n(c2=O)Cc2cc3ccccc3nc2-1)C(=O)NCC(=O)N[C@@H](Cc1ccccc1)C(=O)N[C@@H](CC(C)C)C(=O)NCC(=O)N[C@@H](CC(N)=O)C(=O)N1CCC[C@H]1C(=O)N[C@@H](CC(N)=O)C(=O)N[C@@H](Cc1c[nH]c2ccccc12)C(=O)NCC(=O)N[C@@H](CCCNC(=N)N)C(=O)N[C@@H](CO)C(=O)N[C@@H](Cc1c[nH]c2ccccc12)C(=O)N[C@@H](Cc1ccc(O)cc1)C(=O)N[C@@H](CC(N)=O)C(=O)N[C@@H](CCC(N)=O)C(=O)N[C@@H](CCCNC(=N)N)C(=O)N[C@@H](Cc1ccccc1)C(=O)N[C@@H](CCCCN)C(N)=O` (stereo not given in full) (H-AVPIAQKC(X1)GFLGNPNWGRSWYNQRFK-NH2), the outcome with SK-BR-3 [1] was Active. In [2], the Drug uptake result is “Active”. Besides, in data set [3], the inhibition entry is “Dose-Dependent Effect”. In addition, the Activity entry was “Toxic” in data set [4]; “Toxic” in [5]; “Non-Toxic” in data set [6]; “Non-Toxic” in [7]; “Non-Toxic” in [8]. Besides, the concentration for half-maximal inhibition (IC50) with SK-BR-3 [9] turned out to be 530 nM; in the data set with NCI-N87, 1580 nM.
